{
  "source": "patent US7612250B2",
  "about": "“Nuclear transfer embryo formation method” (Trustees of Tufts College, priority 2002, dated 2009)",
  "key": {"[1]": {"system": "B6D2F1 and CF-1 mouse oocytes", "procedure": "(§1) Hybrid B6D2F1 (C57BL/6×DBA/2) and outbred CF-1 female mice, 8-12 weeks of age, were used as oocyte donors. […] Females were induced to superovulate by intraperitoneal injection of 5 1U of pregnant mare serum gonadotropin (PMSG, Calbiochem) followed 48 h later by 5 1U of human chorionic gonadotropin (hCG, Calbiochem). MII oocytes were collected from oviducts 16-17 h after hCG administration in Hepes-buffered KSOM (H-KSOM, Specialty Media). Cumulus cells were dispersed by incubation in 150 units/ml of bovine testicular hyaluronidase (Sigma) in H-KSOM at 37° C. for 5 min. Cumulus-free oocytes were then washed three times in fresh H-KSOM and immediately activated.\n(§2) Oocytes were parthenogenetically activated by a 5-min exposure to freshly prepared 7% (v/v) ethanol in H-KSOM at 37° C. and then washed twice in H-KSOM. Removal of oocytes from ethanol was considered as time zero post-activation (p.a.). To monitor meiotic progression, activated control oocytes (EtOH groups) were cultured for up to 2 h and 15 min and fixed at 30 min intervals, starting 45 min p.a. Culture of activated oocytes was at 37° C. under 5% COZ in air in KSOM medium containing 1 mg/ml BSA and amino acids (16; Specialty Media).\n(§3) Fixed oocytes were stored until processing at 4 C. in a PBS blocking solution containing 1% BSA, 0.2% powdered milk, 2% normal goat serum, 0.1 M glycine, 0.2% sodium azide and 0.01% Triton X-100.\n(§4) A triple labeling protocol was used for the detection of microtubules, microfilaments and chromatin by fluorescence microscopy. […]\n(§5) Labeled oocytes were examined using a Zeiss IM-35 inverted epi-fluorescence microscope fitted with filters selective for Hoechst, fluorescene and Texas Red and a 50 W mercury lamp. […]\n(§6) Data were analyzed by x^2 test or Fisher's exact test. […]"}, "bovine oocytes": {"system": "bovine oocytes", "assay": "Induced enucleation (IE) of activated bovine oocytes by demecolcine", "type": "cell-based"}, "[2]": {"system": "bovine oocytes / NT embryos", "assay": "In vitro development (7 days) of bovine NT embryos / parthenotes prepared with demecolcine", "type": "cell-based", "conditions": "for cleavage rate / morula/blastocyst rate: 7 days culture", "method": "Progress has continued with experiments designed to compare in vitro development of control embryos (parthenotes) with that of reconstructed NT embryos prepared by conventional NT, telophase NT, IE and a novel simultaneous IE-NT paradigm (SIE/NT; see Table 1 below). As in all previous experiments, abattoir-sourced oocytes were obtained having been submitted to 26 h of maturation in ACM medi a @5%CO2 in air. Oocytes were denuded (enzyme/vortex) and activated (5 μM ionomyciin for 5 min, +/−CHX). See Example 2 for detail on methods. […] In the case of SIE/NT, donor karyoplasts (fibroblasts) were injected immediately prior to or immediately after activation. In vitro embryo development was evaluated over a period of 7 days."}, "[3]": {"system": "B6D2F1 and CF-1 mouse oocytes", "assay": "Complete second polar body extrusion in ethanol-activated mouse oocytes treated with demecolcine", "type": "cell-based", "conditions": "demecolcine for only 15, 30 or 45 min, compared with continuous exposure; preliminary, unpublished", "procedure": "as §1\nOocytes were parthenogenetically activated by a 5-min exposure to freshly prepared 7% (v/v) ethanol in H-KSOM at 37° C. and then washed twice in H-KSOM. Removal of oocytes from ethanol was considered as time zero post-activation (p.a.). […]\nas §4, §5, §6"}, "[4]": {"system": "B6D2F1 and CF-1 mouse oocytes", "remark": "listed apart in the source", "procedure": "as §1, §2, §3\nA triple labeling protocol was used for the detection of microtubules, microfilaments and chromatin by fluorescence microscopy. Oocytes were first incubated for 1 h at 37° C. in a mixture of mouse monoclonal anti a-tubulin and anti (3-tubulin antibodies (Sigma) at a 1:1000 final dilution. After several washes in 0.1% polyvinylpyrrolidone (PVP)/PBS at room temperature, oocytes were incubated at 37° C. in PBS blocking solution for 30 min and then in a 1:150 dilution of a donkey antimouse fluorescein-conjugated IgG (Jackson ImmunoResearch) for 45 min at 37° C. Oocytes were washed again several times in 0.1% PVP/PBS and incubated at 37° C. for 30 min in 10 units/ml of Texas Red-conjugated phalloidin (Molecular Probes) to stain actin filaments. Finally, after extensive washing in 0.1% PVP/PBS, oocytes were incubated at room temperature for 15 min in 10 μLg/ml Hoechst 33258 (Molecular Probes) and mounted in 50% glycerol/PBS containing 25 mg/ml sodium azide.\nLabeled oocytes were examined using a Zeiss IM-35 inverted epi-fluorescence microscope fitted with filters selective for Hoechst, fluorescene and Texas Red and a 50 W mercury lamp. Selected images were acquired using a Photometrics Cool Snap CCD camera (Roper Scientific Inc., Trenton, N.J.) running on Metamorph software (version 5.0, Universal Imaging Corp., Downington, Pa.).\nData were analyzed by x^2 test or Fisher's exact test. A probability value of P<0.05 was considered to be statistically significant.\nIn vivo ovulated mouse oocytes (B6D2F1, n-959; CF 1, n=999) and in vitro matured goat oocytes (n-163) were denuded activated (7% ethanol) and incubated for up to 3.5 hr in KSOM."}, "[5]": {"conditions": "IE group: fibroblast nuclei injected into IE cytoplasts 1.5-3 hpa"}, "[6]": {"conditions": "Induced Enucleation (IE): demecolcine 0.4 μg/ml 1.5-5 h p.a., nuclei injected 1.5-3 h p.a."}, "[7]": {"conditions": "Simultaneous IE-NT (SIE/NT): karyoplasts injected immediately prior to or after activation"}, "[8]": {"conditions": "parthenogenetically activated and DM treated oocytes (control group)"}},
  "data": [
    {"smiles": "CN[C@H]1CCc2cc(OC)c(OC)c(OC)c2-c2ccc(OC)c(=O)cc21", "note": "[demecolcine]", "values": [
      {"measurement": "oocytes showing complete spindle rotation", "setting": "[1]; CF-1 and B6D2F1 treated oocytes, all treatments, 135 min p.a.", "result": "0-9.6%"},
      {"measurement": "oocytes in which spindle rotation is completed", "setting": "[1]; demecolcine treated oocytes, both strains", "result": "less than 10%"},
      {"measurement": "time after onset of treatment at which effect on the meiotic spindle was evident", "setting": "[1]; smaller spindles, lower MT density than untreated activated oocytes", "result": 15, "unit": "min"},
      {"measurement": "maximum rate of IE", "setting": "bovine oocytes; DM 0.4 μg/ml between 1.5 and 5hpa, at 5hpa", "result": 91, "unit": "%"},
      {"measurement": "IE rates", "setting": "bovine oocytes; DM 0.4 μg/ml, varied onset and duration, at 5hpa", "result": "60-91%"},
      {"measurement": "induced enucleation rate", "setting": "bovine oocytes; bovine oocytes, about 5 hours post-activation", "result": "greater than 80%"},
      {"measurement": "time required for induced enucleation", "setting": "bovine oocytes; bovine oocytes, post-activation", "result": "about 5 hours"},
      {"measurement": "cleavage rate", "setting": "[2]; [5]", "result": 48, "unit": "%"},
      {"measurement": "morula/blastocyst rate", "setting": "[2]; [5]", "result": 27, "unit": "%"},
      {"measurement": "Blastocyst", "setting": "[2]; [6]", "result": 16, "unit": "%"},
      {"measurement": "Cleavage", "setting": "[2]; [6]", "result": 49, "unit": "%"},
      {"measurement": "Fragmented", "setting": "[2]; [6]", "result": 20, "unit": "%"},
      {"measurement": "Morula", "setting": "[2]; [6]", "result": 17, "unit": "%"},
      {"measurement": "Blastocyst", "setting": "[2]; [7]", "result": 25, "unit": "%"},
      {"measurement": "Cleavage", "setting": "[2]; [7]", "result": 54, "unit": "%"},
      {"measurement": "Fragmented", "setting": "[2]; [7]", "result": 18, "unit": "%"},
      {"measurement": "cleavage rate", "setting": "[2]; [8]", "result": 49, "unit": "%"},
      {"measurement": "morula/blastocyst rate", "setting": "[2]; [8]", "result": 30, "unit": "%"},
      {"measurement": "rates of second PB extrusion after short exposure", "setting": "[3]", "result": "slightly higher"},
      {"measurement": "time required for induced enucleation", "setting": "goat oocytes", "result": "about 5 hours"},
      {"measurement": "induced enucleation rate", "setting": "goat oocytes; 5 hours", "result": "greater than 80%"},
      {"measurement": "enucleation rates of oocytes that completed second PB extrusion", "setting": "[4]; CF-1, four treatments (onset 0-15 min p.a.), all time-points combined", "result": "~80", "unit": "%"},
      {"measurement": "rates of oocyte enucleation after short exposure", "setting": "[4]; demecolcine for only 15, 30 or 45 min, compared with continuous exposure, preliminary, unpublished", "result": "reduced"},
      {"measurement": "maximum IE rates", "setting": "[4]; mouse oocytes exposed to demecolcine immediately after activation, strain-dependent", "result": "23-100%"},
      {"measurement": "time required for induced enucleation", "setting": "[4]; murine oocytes", "result": "about 1.5 hours"},
      {"measurement": "induced enucleation rate", "setting": "[4]; murine oocytes, about 1.5 hours", "result": "greater than 50%"}
    ]}
  ]
}
